According to patent US12319681B2, “Tripartite androgen receptor eliminators, methods and uses thereof” (SPG Therapeutics, Inc., priority 2017, dated 2025):
Read-outs that look alike come from different tables or passages of the source.

What was measured:
androgen receptor (AR) [1] = biological target: T1, androgen receptor (AR) (Homo sapiens, UniProt P10275); test: Keratinocyte AR protein level ELISA (Example 10); format: cell-based; settings: 24 h, keratinocytes, AR protein level by ELISA, read-out: AR Reduction
T1 construct: human keratinocytes transfected with an AR luciferase reporter gene; endogenous in cells; host or cells: normal human adult primary epidermal keratinocytes (ATCC PCS-200-011)
T1 sequence (P10275 1-920): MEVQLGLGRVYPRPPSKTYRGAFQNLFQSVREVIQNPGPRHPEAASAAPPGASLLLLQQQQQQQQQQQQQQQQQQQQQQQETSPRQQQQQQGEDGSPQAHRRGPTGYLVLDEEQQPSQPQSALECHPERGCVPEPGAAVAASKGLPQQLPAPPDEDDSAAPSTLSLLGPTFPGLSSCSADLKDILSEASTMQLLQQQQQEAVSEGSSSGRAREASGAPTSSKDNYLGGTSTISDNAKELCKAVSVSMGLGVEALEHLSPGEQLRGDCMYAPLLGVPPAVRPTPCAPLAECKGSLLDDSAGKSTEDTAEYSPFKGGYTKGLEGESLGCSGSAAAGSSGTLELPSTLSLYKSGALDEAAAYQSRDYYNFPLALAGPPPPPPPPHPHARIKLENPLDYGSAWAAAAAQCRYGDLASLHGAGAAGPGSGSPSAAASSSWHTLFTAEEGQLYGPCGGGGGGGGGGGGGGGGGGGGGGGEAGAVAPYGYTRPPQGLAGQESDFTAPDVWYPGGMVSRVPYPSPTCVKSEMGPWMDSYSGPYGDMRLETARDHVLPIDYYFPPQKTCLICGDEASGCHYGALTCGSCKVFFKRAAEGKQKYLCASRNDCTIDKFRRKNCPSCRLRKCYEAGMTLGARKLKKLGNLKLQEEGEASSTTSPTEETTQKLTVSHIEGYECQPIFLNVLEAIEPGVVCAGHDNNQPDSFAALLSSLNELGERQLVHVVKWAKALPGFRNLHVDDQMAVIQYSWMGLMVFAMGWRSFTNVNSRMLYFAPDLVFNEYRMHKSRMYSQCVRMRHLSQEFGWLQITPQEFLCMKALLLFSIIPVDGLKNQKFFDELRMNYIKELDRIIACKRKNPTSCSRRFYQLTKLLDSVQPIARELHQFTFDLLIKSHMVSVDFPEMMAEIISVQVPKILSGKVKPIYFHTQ
Method: (§1) Each ARE tested was prepared in DMSO. […] Ethanol concentrations in media never exceeded 0.1%.
To assess levels of AR, an ELISA was performed.

[2] = test system: normal Human Adult Primary Epidermal Keratinocyte cell line; test: Keratinocyte cell viability (Trypan Blue exclusion, Example 10); settings: keratinocytes, 1.0 nM DHT, 24 hours
Method: For the Keratinocyte assay, normal Human Adult Primary Epidermal Keratinocyte cell line (ATCC PCS-200-011) was maintained in EPIUFE® Medium, with 60 μM calcium (Thermo MEPISOOCA) supplemented with Human Keratinocyte Growth Supplement, 100 U/mL penicillin, and 100 μg/mL streptomycin at 37° C. with 5% C02. For experiments, cells were seeded at 70% confluence per well in 100 μL of medium in 96-well plates. […] After 16 hours, medium was removed and replaced with dosing medium.
A 5α-Androstan-17β-ol-3-one (DHT) stock solution was prepared at 1,000× in ethanol. […] Dosing medium was prepared at the time of treatment by serial diluting stock solution into medium. Ethanol concentrations in media never exceeded 0.1%. […] Negative control wells contained 100 μL medium/well with 1 μL of ethanol/mL of medium and an appropriate amount of DMSO. Each plate also contained 1.0 nM DHT with an ARE or without an ARE as a positive control. Cells were incubated 24 hours at 37° C. without CO2.
(§3) To assess for cell viability, cells were first visually examined under a phase-contrast microscope to record cell confluence, morphological changes, and presence of drug crystallization as well as to observe signs of cytotoxity such as, e.g., detachment, vacuolization, membrane degradation, or lack of phase brightness. After microscopic inspection, a Trypan Blue exclusion assay was performed to assess cell viability and cell number for each well. Each well was washed with 0.5 mL volume of PBS. 30 µL of Trypan Blue was added to each well for 5-10 minutes. Total cell number and total viable cell number will be counted from 1 number of fields per well, in triplicate.

androgen receptor (AR) [3] = biological target: T1, androgen receptor (AR); test: Keratinocyte AR luciferase reporter gene assay (Example 10); format: cell-based; settings: keratinocytes, 1.0 nM DHT, 24 hours, read-out: Gene Activity Reduction
Method: as §1
(§2) To assess ARE-mediated inhibition, an AR luciferase assay was performed. After washing cells with 1×PBS, 20 μL lysis buffer (25 mM Tris/phosphate, 4 mM EGTA, 1% Triton, 10% glycerol, 2 mM DTT) was added per well, incubated for 5 minutes with gentle shaking and store at −80° C. On the day of assay, the plates were thawed to ambient temperature and 80 μL of assay buffer (25 mM glycylglycine, 15 mM MgCl2. 5 mM ATP, 0.1 mg/ml BSA) was added to each well. Plates are then processed on a microplate reader (POLARstar Omega) by injecting 100 μL of 1 mM D-luciferin per well, followed by chemiluminescence measurement of 3 seconds at onset of injection. Luciferase activity was determined, measured, and normalized to Relative Light Units (RLU). AR reporter gene activity reduction values were calculated as follows: AR reporter gene activity=1−(average signal (treatment group)/average signal (treatment group without drug).

androgen receptor (AR) [4] = biological target: T1, androgen receptor (AR); test: Keratinocyte AR Reporter Gene Assay, 24 and 72 hours continuous exposure (Example 12); format: cell-based; settings: keratinocytes
Method: as §2
This example illustrates how to determine the inhibitory activity of an ARE disclosed herein using a cell-based androgen receptor transcriptional reporter assay using primary human keratinocytes.
Results were analyzed for IC50 and IC90 values in GraphPad Prism using a four-parameter logistic curve equation. Bottom constraints were set to 1 (level of uninduced control).

androgen receptor (AR) [5] = biological target: androgen receptor (AR) (Homo sapiens, UniProt P10275); test: MDA-kb2 AR luciferase reporter gene assay (1.0 nM DHT); format: cell-based; settings: read-out: Gene Activity Reduction
Method: This example illustrates how to determine the inhibitory activity of an ARE disclosed herein using a cell-based androgen receptor transcriptional reporter assay using an engineered cell line.
as §1, §2

[6] = test system: MDA-kb2 mammary gland breast cancer cell line; settings: human, 24 h
Method: (§4) For the MDA-kb2 assay, MDA-kb2 mammary gland breast cancer cell line was maintained in L-15 media (Gibco) supplemented with 10% FBS, 100 U/mL penicillin, 100 μg/mL streptomycin, and 0.25 μg/mL amphotericin B at 37° C., without CO2. For experiments, cells were plated at 1.0×10^4 cells (50% confluence) per well in 100 μL of medium in 96-well plates. When cells were attached (after 6 hours), medium was removed and replaced with dosing medium containing 10% charcoal stripped FBS.
(§5) A 5α-Androstan-17β-ol-3-one (DHT) stock solution was prepared at 1,000× in ethanol. Each ARE tested was prepared in DMSO. Dosing medium was prepared at the time of treatment by serial diluting stock solution into medium. Ethanol concentrations in media never exceeded 0.1%. […] Negative control wells contained 100 μL medium/well with 1 μL of ethanol/mL of medium and an appropriate amount of DMSO. Each plate also contained 1.0 nM DHT with an ARE or without an ARE as a positive control. Cells were incubated 24 hours at 37° C. without CO2.
as §3

[7] = test system: normal Human Adult Primary Epidermal Keratinocyte cell line; settings: 72 h
Method: (§6) For the Keratinocyte assay, normal Human Adult Primary Epidermal Keratinocyte cell line (ATCC PCS-200-011) was maintained in EPIUFE® Medium, with 60 μM calcium (Thermo MEPISOOCA) supplemented with Human Keratinocyte Growth Supplement, 100 U/mL penicillin, and 100 μg/mL streptomycin at 37° C. with 5% C02. For experiments, cells were seeded at 70% confluence per well in 100 μL of medium in 96-well plates. Reverse transfection was done on the cells using Lipofectamine 3000 (Life Technologies) with plasmids according to manufacturer's instructions. Briefly, 0.3 μL transfection reagent per 100 ng DNA were incubated with P3000 reagent and Opti-Mem prior to addition of cells. After 16 hours, medium was removed and replaced with dosing medium.
(§7) Each ARE tested was prepared in DMSO. Dosing medium was prepared at the time of treatment by serial diluting stock solution into medium. Ethanol concentrations in media never exceeded 0.1%. […] Negative control wells contained 100 L medium/well with 1 μL of ethanol/mL of medium and an appropriate amount of DMSO. […] Cells were incubated 72 hours at 37° C. without CO2.

in vitro = settings: human
Method: as §6, §7

[8] = test system: MDA-kb2 mammary gland breast cancer cell line; test: MDA-kb2 cell viability (Trypan Blue exclusion); settings: MDA-kb2, 1.0 nM DHT, 24 hours
Method: as §4, §5, §3

[9] = Keratinocyte Cell Viability Assay (Example 11, 72 hours); settings: human
Method: as §6, §7

[10] = test system: normal Human Adult Primary Epidermal Keratinocyte cell line; test: as above; settings: keratinocytes, 72 hours, 0 μM = 100
Method: as §6, §7

[11] = Hamster Skin Penetration Assays; settings: 8-hour time point
Method: The applied formulation dose for each sample was 10.0 μL and each sample was run in four replicates. The samples were evaluated at the 8-hour time point for compound absorption in epidermal and dermal layers and penetration into receptor medium.

Work on `O=C(CC12CC3CC(CC(C3)C1)C2)N1CCN(c2ccc(OC[C@H]3CO[C@](Cn4ccnc4)(c4ccc(Cl)cc4Cl)O3)cc2)CC1` [SPG-006] yielded an inhibition at 0.1 µM (androgen receptor (AR) [1]) of 1%, an inhibition at 1 µM (androgen receptor (AR) [1]) of 5% and an inhibition at 3 µM (androgen receptor (AR) [1]) of 20%. The inhibition at 10 µM (androgen receptor (AR) [1]) was 37%, the “Cell Viability” value ([2]; 0.1 μM) was 93% and the “Cell Viability” value ([2]; 1.0 μM) was 94%. The “Cell Viability” value ([2]; 3.0 μM) was 94%, the “Cell Viability” value ([2]; 10 μM) was 94% and the inhibition at 0.1 µM (androgen receptor (AR) [3]) was 8%. For the same compound, the inhibition at 1 µM (androgen receptor (AR) [3]) was 19%, the inhibition at 3 µM (androgen receptor (AR) [3]) was 28% and the inhibition at 10 µM (androgen receptor (AR) [3]) was 48%.

In the case of `Cc1ncsc1-c1ccc([C@H](C)NC(=O)[C@@H]2C[C@@H](O)CN2C(=O)[C@@H](NC(=O)COCCOCCOCC(=O)N2CCN(c3ccc(OC[C@H]4CO[C@](Cn5ccnc5)(c5ccc(Cl)cc5Cl)O4)cc3)CC2)C(C)(C)C)cc1` [SPG-008], the IC50 (androgen receptor (AR) [4]; 24-hr Treatment) is reported as 3.31 µM, the IC90 (androgen receptor (AR) [4]; 24-hr Treatment) is reported as 8.4 µM and the “Maximum Inhibition” value (androgen receptor (AR) [4]; 24-hr Treatment) is reported as 94%. The IC50 (androgen receptor (AR) [4]; 72-hr Treatment) was 2.38 µM, the IC90 (androgen receptor (AR) [4]; 72-hr Treatment) was 7.86 µM and the “Maximum Inhibition” value (androgen receptor (AR) [4]; 72-hr Treatment) was 94%.

For `CC12CCC(=O)C=C1C[C@@H](SC(=O)COCCOCCNC(=O)CC13CC4CC(CC(C4)C1)C3)C1C2CCC2(C)C1CC[C@@]21CCC(=O)O1` (stereo partly shown) [SPG-004], the inhibition at 0.1 µM (androgen receptor (AR) [5]; MDA-kb2, 24 h) was 11%, the inhibition at 1 µM (androgen receptor (AR) [5]; MDA-kb2, 24 h) was 22% and the inhibition at 3 µM (androgen receptor (AR) [5]; MDA-kb2, 24 h) was 36%. For the same compound, the inhibition at 10 µM (androgen receptor (AR) [5]; MDA-kb2, 24 h) was 42%, the “Cell Viability” value ([6]; 0.1 μM) was 97% and the “Cell Viability” value ([6]; 1 μM) was 98%. The “Cell Viability” value ([6]; 3 μM) was 99% and the “Cell Viability” value ([6]; 10 μM) was 98%.

In the case of `CC(=O)N1CCN(c2ccc(OC[C@H]3CO[C@](Cn4ccnc4)(c4ccc(Cl)cc4Cl)O3)cc2)CC1` (racemic) [SPG-002, Ketoconazole], the “Cell Viability” value ([2]; 0.1 μM) is reported as 95%, the “Cell Viability” value ([2]; 3.0 μM) is reported as 94% and the “Cell Viability” value ([2]; 10 μM) is reported as 95%. The “Cell Viability” value ([7]; 0.62 μM) was 93.61 ± 3.38, the “Cell Viability” value ([7]; 1.85 μM) was 90.96 ± 2.34 and the “Cell Viability” value ([7]; 5.56 μM) was 71.22 ± 0.88. For the same compound, the “Cell Viability” value ([7]; 16.67 μM) was 41.59 ± 1.76, the “Cell Viability” value ([7]; 50 μM) was 7.29 ± 12.16 and the IC50 at 72 h (in vitro) was 11 µM. For the same compound, the “Cell Viability” value ([8]; 0.1 μM) was 97%.

With `O=C(CC12CC3CC(CC(C3)C1)C2)NCCOCCOCC(=O)N1CCN(c2ccc(OC[C@H]3CO[C@](Cn4ccnc4)(c4ccc(Cl)cc4Cl)O3)cc2)CC1` [SPG-005] the IC50 at 72 h [9] was 2 µM, the “Cell Viability” value ([10]; 0.62 μM) was 77.01 ± 0.64 and the “Cell Viability” value ([10]; 1.85 μM) was 62.57 ± 2.06. For the same compound, the “Cell Viability” value ([10]; 5.56 μM) was 1.98 ± 8.39, the “Cell Viability” value ([10]; 16.67 μM) was 0.11 ± 1.77 and the “Cell Viability” value ([10]; 50 μM) was 0.09 ± 6.41. For the same compound, the “Cell Viability” value ([10]; […]) was 93.72 ± 1.69, the inhibition at 0.1 µM (androgen receptor (AR) [1]) was 12% and the inhibition at 1 µM (androgen receptor (AR) [1]) was 19%. For the same compound, the inhibition at 3 µM (androgen receptor (AR) [1]) was 23%, the inhibition at 10 µM (androgen receptor (AR) [1]) was 65% and the “Cell Viability” value ([2]; 0.1 μM) was 94%. For the same compound, the “Cell Viability” value ([2]; 1.0 μM) was 92%, the “Cell Viability” value ([2]; 3.0 μM) was 93% and the “Cell Viability” value ([2]; 10 μM) was 94%. It also gave an inhibition at 0.1 µM (androgen receptor (AR) [3]) of 21%, an inhibition at 1 µM (androgen receptor (AR) [3]) of 29% and an inhibition at 3 µM (androgen receptor (AR) [3]) of 31%. The inhibition at 10 µM (androgen receptor (AR) [3]) was 90%, the inhibition at 0.1 µM (androgen receptor (AR) [5]; 0.1 μM, MDA-kb2, 1.0 nM DHT, 24 hours) was 9% and the inhibition at 1 µM (androgen receptor (AR) [5]; 1.0 μM, MDA-kb2, 1.0 nM DHT, 24 hours) was 14%. For the same compound, the inhibition at 3 µM (androgen receptor (AR) [5]; 3.0 μM, MDA-kb2, 1.0 nM DHT, 24 hours) was 18%, the inhibition at 10 µM (androgen receptor (AR) [5]; 10 μM, MDA-kb2, 1.0 nM DHT, 24 hours) was 80% and the “Cell Viability” value ([8]; 0.1 μM) was 98%. For the same compound, the “Cell Viability” value ([8]; 1.0 μM) was 98%, the “Cell Viability” value ([8]; 3.0 μM) was 98% and the “Cell Viability” value ([8]; 10 μM) was 98%.

For `CC(=O)S[C@@H]1CC2=CC(=O)CC[C@]2(C)[C@H]2CC[C@@]3(C)[C@@H](CC[C@@]34CCC(=O)O4)[C@H]12` [SPG-001, Spironolactone], the “Cell Viability” value ([2]; 0.1 μM) was 92%, the “Cell Viability” value ([2]; 1.0 μM) was 94% and the “Cell Viability” value ([2]; 3.0 μM) was 92%. The “Cell Viability” value ([2]; 10 μM) was 95%, the “Cell Viability” value ([7]; 0.62 μM) was 113.05 ± 1.09 and the “Cell Viability” value ([7]; 1.85 μM) was 108.09 ± 1.79. The “Cell Viability” value ([7]; 5.56 μM) was 99.27 ± 1.50, the “Cell Viability” value ([7]; 16.67 μM) was 82.73 ± 1.34 and the “Cell Viability” value ([7]; 50 μM) was 58.33 ± 2.39. The IC50 at 72 h (in vitro) was 50 µM, the “Cell Viability” value ([8]; 0.1 μM) was 99% and the “Cell Viability” value ([8]; 1.0 μM) was 98%. For the same compound, the “Cell Viability” value ([8]; 3.0 μM) was 98%, the “Cell Viability” value ([8]; 10 μM) was 98% and the “skin absorption (in words)” value [11] was “good amount”. The “skin penetration (in words)” value [11] was “good amount”.

In the case of `Cc1ncsc1-c1ccc([C@H](C)NC(=O)[C@@H]2C[C@@H](O)CN2C(=O)[C@@H](NC(=O)COCC(=O)N2CCN(c3ccc(OC[C@H]4CO[C@](Cn5ccnc5)(c5ccc(Cl)cc5Cl)O4)cc3)CC2)C(C)(C)C)cc1` [SPG-007], the IC50 (androgen receptor (AR) [4]; 24-hr Treatment) is reported as 4.58 µM, the IC90 (androgen receptor (AR) [4]; 24-hr Treatment) is reported as 73.8 µM and the “Maximum Inhibition” value (androgen receptor (AR) [4]; 24-hr Treatment) is reported as 67%. The IC50 (androgen receptor (AR) [4]; 72-hr Treatment) was 1.5 µM, the IC90 (androgen receptor (AR) [4]; 72-hr Treatment) was 22.2 µM and the “Maximum Inhibition” value (androgen receptor (AR) [4]; 72-hr Treatment) was 80%.

With `O=C(Nc1ccc([N+](=O)[O-])cc1Cl)c1cc(Cl)ccc1O` [Niclosamide] the “Cell Viability” value ([7]; 0.62 μM) was 34.13 ± 2.99, the “Cell Viability” value ([7]; 1.85 μM) was 30.65 ± 5.98 and the “Cell Viability” value ([7]; 5.56 μM) was 25.07 ± 3.81. For the same compound, the “Cell Viability” value ([7]; 16.67 μM) was 15.93 ± 7.45, the “Cell Viability” value ([7]; 50 μM) was 0.20 ± 6.09 and the IC50 at 72 h (in vitro) was < 0.2 µM.
